# Experimental data from patent US5798381A, “Biologically active bistramides, process for their production and their applications in therapy” (Institut Francais de Recherche Scientifique pour le …, priority 1993, dated 1998).
# Read-outs that look alike come from different tables or passages of the source.
# Assays:
# mice = assay: Acute toxicity (LD50), intravenous injection in mice; assay type: in vivo; settings: statement in words
# Method: The LD50 of these bistramides is in fact of the order of 1.7 mg/kg (measured in mice, after injection of the product by intravenous route as a single dose).
# The "LD50 " of the products of the invention has been measured for mice after injection of the products by intravenous route.
# KB = assay: Cytotoxicity, 50% inhibition of cell growth, KB; assay type: cell-based; settings: Homo sapiens, read-out: IC50 (50% inhibition of cell growth)
# Method: (§1) The cytoxicity results are recorded hereafter as the IC50 in μg/ml (concentration corresponding to a 50% inhibition of cell growth) on 6 tumoural lines namely KB, P388, P388/dox (resistant to doxorubicin), B16 and H429 and NSCLC-N6, which are human cells of non-small cell bronchopulmonary carcinoma type.
# (§2) The determinations were carried out according to the protocol given in Cancer Chemother. Pharmacol. (1991) 28:283-292 by Roussakis et al.
# P388 (p388s) = assay: Cytotoxicity, 50% inhibition of cell growth, P388; assay type: cell-based; settings: Mus musculus, P388/S; p388s; read-out: IC50 (50% inhibition of cell growth)
# Method: as §1, §2
# B16 = assay: Cytotoxicity, 50% inhibition of cell growth, B16; assay type: cell-based; settings: Mus musculus, B16; read-out: IC50 (50% inhibition of cell growth)
# Method: as §1, §2
# [1] = system: NSCLC solid tumours (xenograft); assay type: in vivo, nude mouse; settings: at the end of 30 days
# Method: The anti-tumoural activity of the products of the invention was studied against solid tumours of NSCLC type grafted onto a nude mouse (D. Riou, C. Roussakis, J. F. Biard, J. F. Verbist: "Comparative study of antitumor activity of bistramides A, D and K against non-small cell bronchopulmonary carcinoma", Anticancer Research, 1993, 13, 2321-2334). Each mouse received 0.2 ml of a cell solution obtained by the mechanical dispersion of about 1 g of excised mouse tumour in 4.8 ml of a sterile saline solution. The sub-cutaneous grafted tumours were measured over their long length L and their short length 1. The tumoural volume was evaluated according to the formula Vt=L×1^2 /2. The tumoural growth on day d was calculated by the formula Vtd /Vtd0 for each mouse, Vtd0 being the tumoural volume at the start of treatment.
# The curve "------.circle-solid.------ " relates to the control experiment, the curves "--- .diamond-solid.---", "-- .quadrature.--" and "-- .box-solid.--" to experiments with 10, 20 and 5 mg/kg of bistramide D respectively and the curve "----*----" to an experiment with 10 mg/kg of bistramide K. Each point represents the average tumoural growth for 6 mice.
# In these experiments, bistramide K is injected at the rate of 10 mg/kg by intraperitoneal route for 16 days and bistramide D at the rate of 5 mg/kg by intraperitoneal route every day for 16 days; at 10 mg/kg by intravenous route on days 1, 5, 9, 14, and at 20 mg/kg by intravenous route on days 1, 5, 9, 14.
structure (smiles),measurement,setting,value
C/C=C/C(O)CC1CCC(C)C(CC(=O)NCC(O)C(C)C(=O)NCCCC2OC3(CCCC(CCC(C)/C=C(\C)C(C)O)O3)CCC2C)O1 (stereo not shown) [Bistramide D],toxicity in vivo,mice,less toxic
same,IC50,KB,10 µg/mL
same,IC50,P388 (p388s),0.36 µg/mL
same,IC50,B16,0.1 µg/mL
same,tumoural growth relative to controls (100%),"[1]; 5 mg/kg, IP, every day for 16 days",100%
same,tumoural growth relative to controls (100%),"[1]; 10 mg/kg, IV, days 1, 5, 9, 14",76%
same,tumoural growth relative to controls (100%),"[1]; 20 mg/kg, IV, days 1, 5, 9, 14",53%
